Results reported in US20230398080A1, “FLOATING DRUG DELIVERY SYSTEMS COMPRISING CANNABINOIDS” (YISSUM RESEARCH DEVELOPMENT COMP ANY OF THE HEBREW …, priority 2020, published 2023).

Test: THC-CBD-Metoprolol intra-colon vs oral administration in the freely moving rat model
Conditions: for absorption through the colon in comparison to PO administration: lipid-based self-nano emulsifying formulation via colonic cannula vs PO, CBD 15 mg/kg, THC 20 or 10 mg/kg

| SMILES | AUC after administration through the colon in comparison to PO administration (colonic cannula vs PO, metoprolol 20 or 15 mg/kg) | absorption through the colon in comparison to PO administration |
| --- | --- | --- |
| COCCc1ccc(OCC(O)CNC(C)C)cc1 (stereo not drawn) [Metoprolol] | approximately 4 fold | – |
| CCCCCc1cc(O)c2c(c1)OC(C)(C)[C@@H]1CCC(C)=C[C@@H]21 [THC, tetrahydrocannabinol] | – | practically not absorbed through the colon |
| C=C(C)[C@@H]1CCC(C)=C[C@H]1c1c(O)cc(CCCCC)cc1O [CBD, cannabidiol] | – | practically not absorbed through the colon |
